Our source for the IC50 values is PubChem BioAssay AID651650 (Sanford-Burnham Center for Chemical Genomics, 2012).

Activity calls are given as the source filed them.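 The calls were made as follows: active = mean IC50 below 20 µM in each of the two panels, so potent in both; inactive = the rest.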 Bounds are passed on as bounds.

The target of this assay is Neuropilin-1 (Homo sapiens) (UniProt O14786). The assay can be described thus: blockers of CendR peptide binding to NRP-1 – biochemical, FP and AlphaScreen panel, dose response (AID 651650). To be noted: NRP-1 b1b2 / RPARPAR peptide binding, FP or AlphaScreen. Background: Alpha assays give light when donor and acceptor beads are brought close together.
Where [1] appears, read: AlphaScreen, run 1, individual panel run IC50.
The mark [2] stands for this setting: FP, run 1, individual panel run IC50.
Where [3] appears, read: FP, run 2, individual panel run IC50.

Neuropilin-1 (Homo sapiens), sequence (O14786 whole entry, looked up): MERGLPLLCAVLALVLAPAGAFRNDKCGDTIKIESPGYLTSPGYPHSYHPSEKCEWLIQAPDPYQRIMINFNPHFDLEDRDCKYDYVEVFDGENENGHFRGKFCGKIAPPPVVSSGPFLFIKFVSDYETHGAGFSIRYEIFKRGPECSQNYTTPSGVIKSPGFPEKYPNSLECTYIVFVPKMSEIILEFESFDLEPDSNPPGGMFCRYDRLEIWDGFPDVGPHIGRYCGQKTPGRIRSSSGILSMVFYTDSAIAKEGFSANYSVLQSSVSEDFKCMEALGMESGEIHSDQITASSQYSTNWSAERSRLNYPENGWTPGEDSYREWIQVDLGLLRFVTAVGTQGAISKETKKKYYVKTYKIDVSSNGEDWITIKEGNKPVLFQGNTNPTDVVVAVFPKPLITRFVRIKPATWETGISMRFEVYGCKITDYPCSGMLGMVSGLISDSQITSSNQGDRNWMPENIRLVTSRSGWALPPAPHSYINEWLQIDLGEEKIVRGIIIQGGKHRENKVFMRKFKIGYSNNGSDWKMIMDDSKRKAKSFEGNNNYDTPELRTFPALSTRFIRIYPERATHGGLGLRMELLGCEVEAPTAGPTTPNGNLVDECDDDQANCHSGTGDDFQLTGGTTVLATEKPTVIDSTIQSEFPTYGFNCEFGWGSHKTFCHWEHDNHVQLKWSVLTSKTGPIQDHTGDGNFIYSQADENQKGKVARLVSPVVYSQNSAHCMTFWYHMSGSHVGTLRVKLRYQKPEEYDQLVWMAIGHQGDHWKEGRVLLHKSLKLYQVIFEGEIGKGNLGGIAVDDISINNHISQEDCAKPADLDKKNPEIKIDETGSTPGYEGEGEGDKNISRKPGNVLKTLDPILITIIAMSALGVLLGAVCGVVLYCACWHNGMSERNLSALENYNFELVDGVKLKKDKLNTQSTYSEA

On to `Cc1cnc(C(=O)OCC(=O)Nc2sc3c(c2C#N)CCC3)cn1`, for which the IC50 (commonly the concentration needed to halve the response being measured) was > 100 µM (inactive) (AlphaScreen, mean of runs); over 100 µM under setting [1]; > 95 µM (inactive) (FP, mean of runs); over 95 µM under setting [2]; over 95 µM under setting [3].
In the case of `COc1ccc(Nc2nc(-c3cccnc3)nc3ccccc23)cn1`, the IC50 entry (AlphaScreen, mean of runs) is “inactive”. Moreover, the IC50 under setting [1] was determined as 54.7 µM; the IC50 (FP, mean of runs) was > 95 µM (inactive); the IC50 under setting [2] is over 95 µM; the IC50 under setting [3] was over 95 µM.
As to `Cc1cccc(N(CC(=O)NC2CCCC2)C(=O)CS(=O)CC(=O)Nc2ccc3c(c2)OCO3)c1C` (stereo not given), the IC50 (AlphaScreen, mean of runs) was > 100 µM (inactive); the IC50 under setting [1] is over 100 µM; the IC50 (FP, mean of runs) is > 95 µM (inactive); the IC50 under setting [2] is over 95 µM; the IC50 under setting [3] was over 95 µM.
As for `CCOc1ccc(C2CC(c3ccc(CC)cc3)n3nc(N)nc3N2)cc1` (stereo not given), the IC50 reads like this: (AlphaScreen, mean of runs) > 100 µM (inactive); under setting [1], over 100 µM; (FP, mean of runs) > 95 µM (inactive); under setting [2], over 95 µM; under setting [3], over 95 µM.
With `COc1ccc2c(c1OC)CN1CCc3cc4c(cc3[C@@H]1[C@@H]2O)OCO4`, the IC50 was > 100 µM (inactive) (AlphaScreen, mean of runs); over 100 µM under setting [1]; > 95 µM (inactive) (FP, mean of runs); over 95 µM under setting [2]; over 95 µM under setting [3].
With `O=C(NNC(=O)c1ccccc1Cl)c1cccnc1`, the IC50 is 19.2 µM (AlphaScreen, mean of runs); 19.2 µM under setting [1]; > 95 µM (inactive) (FP, mean of runs); over 95 µM under setting [2]; over 95 µM under setting [3].
Turning to `CCNC(=O)C1(C)CCCN(C(=O)c2nc(C)oc2C)C1` (stereo not given), the IC50 is, setting by setting: (AlphaScreen, mean of runs) > 100 µM (inactive); under setting [1], over 100 µM; (FP, mean of runs) > 95 µM (inactive); under setting [2], over 95 µM; under setting [3], over 95 µM.
As for `CC(=O)OC1CC[C@]2(C#N)[C@H]3CC[C@]4(C)[C@H](C5C=CC(=O)O5)CCC4(O)C3CCC2(O)C1` (stereo not given in full), the IC50 is, setting by setting: (AlphaScreen, mean of runs) > 100 µM (inactive); under setting [1], over 100 µM; (FP, mean of runs) > 95 µM (inactive); under setting [2], over 95 µM; under setting [3], over 95 µM.
In the case of `C/C(=N\N=c1/sc2ccccc2n1C)c1ccccn1`, the IC50 is > 100 µM (inactive) (AlphaScreen, mean of runs); over 100 µM under setting [1]; > 95 µM (inactive) (FP, mean of runs); over 95 µM under setting [2]; over 95 µM under setting [3].
For `O=C(Nc1cccc2c1CCCC2)c1cc(C2CCCCN2C(=O)CCCc2ccccc2)on1` (stereo not given), the IC50 is > 100 µM (inactive) (AlphaScreen, mean of runs); over 100 µM under setting [1]; > 95 µM (inactive) (FP, mean of runs); over 95 µM under setting [2]; over 95 µM under setting [3].
For the compound `O=C(c1ccco1)N1CCN(C(=O)c2ccccc2OC(=O)C23CC4CC(CC(C4)C2)C3)CC1`, the IC50 (AlphaScreen, mean of runs) was 0.965 µM; the IC50 under setting [1] was determined as 0.965 µM; the IC50 (FP, mean of runs) is > 95 µM (inactive); the IC50 under setting [2] was over 95 µM; the 50% inhibitory concentration (IC50) under setting [3] was over 95 µM.
As to `N#Cc1ccc(COC(=O)c2cnc(Cl)c(Cl)c2)cc1`, the IC50 was > 100 µM (inactive) (AlphaScreen, mean of runs); over 100 µM under setting [1]; > 95 µM (inactive) (FP, mean of runs); over 95 µM under setting [2]; over 95 µM under setting [3].
In the case of `Cc1ccc(C2(O)CCN3CCCCC32)cc1` (stereo not given), the IC50 was > 100 µM (inactive) (AlphaScreen, mean of runs); over 100 µM under setting [1]; > 95 µM (inactive) (FP, mean of runs); over 95 µM under setting [2]; over 95 µM under setting [3].
Turning to `COc1ccc(C2CC(C(F)(F)F)n3nc(C(=O)O)c(Cl)c3N2)cc1OC` (stereo not given), the IC50 was > 100 µM (inactive) (AlphaScreen, mean of runs); over 100 µM under setting [1]; 53.3 µM under setting [2]; 61.7 µM under setting [3]. Besides, the IC50 entry (FP, mean of runs) is “inactive”.
Taken in the same sequence, the figures for `C[C@@H](NC(=O)c1[nH]cnc1C(=O)Nc1cccc(Cl)c1)c1ccccc1` were “inactive”, 21.8 µM, over 95 µM, over 95 µM and > 95 µM (inactive).
Taken in the same sequence, the figures for `O=C1CCCN1CCCNc1nc(NCc2cccs2)nc2ccsc12` were “inactive”, 28 µM, over 95 µM, over 95 µM and > 95 µM (inactive).
Taken in the same sequence, the figures for `COc1ccc(C(=O)N2CCC(C(=O)NCc3ccccn3)CC2)cc1` were > 100 µM (inactive), over 100 µM, over 95 µM, over 95 µM and > 95 µM (inactive).
Regarding `Cc1ccc(CN(CC(=O)NC2CCCCC2)C(=O)c2csnn2)cc1`, the IC50 (AlphaScreen, mean of runs) was > 100 µM (inactive); the IC50 under setting [1] was over 100 µM; the IC50 (FP, mean of runs) was > 95 µM (inactive); the IC50 under setting [2] was over 95 µM; the IC50 under setting [3] was over 95 µM.
With `COc1c2ccc(C(=O)NCc3cc(C(F)(F)F)cc(C(F)(F)F)c3)cc2nn1C`, the IC50 (AlphaScreen, mean of runs) was > 100 µM (inactive); the IC50 under setting [1] is over 100 µM; the IC50 (FP, mean of runs) was > 95 µM (inactive); the IC50 under setting [2] is over 95 µM; the IC50 under setting [3] is over 95 µM.
As for `c1ccc2c3n(nc2c1)CCCO3`, the IC50 runs as follows: (AlphaScreen, mean of runs) > 100 µM (inactive); under setting [1], over 100 µM; (FP, mean of runs) > 95 µM (inactive); under setting [2], over 95 µM; under setting [3], over 95 µM.
In the case of `Cc1ccc(Nc2c(-c3ccccc3O)nc3ncccn23)cc1`, the IC50 by setting is: (AlphaScreen, mean of runs) > 100 µM (inactive); under setting [1], over 100 µM; (FP, mean of runs) > 95 µM (inactive); under setting [2], over 95 µM; under setting [3], over 95 µM.
As for `CC1(c2ccccc2)CC(C)(C)n2c(O)c(C3=NC(=S)NC3=O)c3cccc1c32` (stereo not given), the IC50 is > 100 µM (inactive) (AlphaScreen, mean of runs); over 100 µM under setting [1]; > 95 µM (inactive) (FP, mean of runs); over 95 µM under setting [2]; over 95 µM under setting [3].
With `Cc1ccc(NNS(=O)(=O)c2ccc(C)cc2)cc1`, the IC50 is > 100 µM (inactive) (AlphaScreen, mean of runs); over 100 µM under setting [1]; > 95 µM (inactive) (FP, mean of runs); over 95 µM under setting [2]; over 95 µM under setting [3].
With `COC(=O)Cc1ccc(NC(=S)NCCCO)cc1`, the IC50 by setting is: (AlphaScreen, mean of runs) > 100 µM (inactive); under setting [1], over 100 µM; (FP, mean of runs) > 95 µM (inactive); under setting [2], over 95 µM; under setting [3], over 95 µM.
With `NC1=NC[C@@H](Cc2ccc(O)cc2)N1CCCCC1CCCCC1`, the IC50 by setting is: (AlphaScreen, mean of runs) > 100 µM (inactive); under setting [1], over 100 µM; (FP, mean of runs) > 95 µM (inactive); under setting [2], over 95 µM; under setting [3], over 95 µM.
Turning to `Cc1cc(=O)n2nc(N3CCCC(C(=O)N4CCOCC4)C3)sc2n1` (stereo not given), the IC50 was > 100 µM (inactive) (AlphaScreen, mean of runs); over 100 µM under setting [1]; > 95 µM (inactive) (FP, mean of runs); over 95 µM under setting [2]; over 95 µM under setting [3].
Turning to `Cn1cccc1C1Nc2ccccc2NC2=C1C(=O)CC(C)(C)C2` (stereo not given), the IC50 was > 100 µM (inactive) (AlphaScreen, mean of runs); over 100 µM under setting [1]; > 95 µM (inactive) (FP, mean of runs); over 95 µM under setting [2]; over 95 µM under setting [3].
`COc1cc(C(=O)OCC(=O)Nc2c(F)c(F)c(F)c(F)c2F)cc(OC)c1OC`: the IC50 is > 100 µM (inactive) (AlphaScreen, mean of runs); over 100 µM under setting [1]; > 95 µM (inactive) (FP, mean of runs); over 95 µM under setting [2]; over 95 µM under setting [3].
For `CCc1cc(C(=O)OC)c(NC(=O)c2ccoc2C)s1`, the IC50 was > 100 µM (inactive) (AlphaScreen, mean of runs); over 100 µM under setting [1]; > 95 µM (inactive) (FP, mean of runs); over 95 µM under setting [2]; over 95 µM under setting [3].
With `CC(C)(C)OC(=O)N1CCC(NC(=O)c2nc[nH]c2C(=O)N2CCc3ccccc3C2)CC1`, the IC50 (AlphaScreen, mean of runs) was > 100 µM (inactive); the IC50 under setting [1] was over 100 µM; the IC50 (FP, mean of runs) was > 95 µM (inactive); the IC50 under setting [2] is over 95 µM; the IC50 under setting [3] was over 95 µM.
As to `NC(=O)C(c1ccc(Cl)cc1Cl)c1ncc(C(F)(F)F)cc1Cl` (stereo not given), the IC50 reads like this: (AlphaScreen, mean of runs) > 100 µM (inactive); under setting [1], over 100 µM; (FP, mean of runs) > 95 µM (inactive); under setting [2], over 95 µM; under setting [3], over 95 µM.
With `COC(=O)C[C@H]1c2cc(F)ccc2S(=O)(=O)N1C(C)C`, the IC50 (AlphaScreen, mean of runs) was > 100 µM (inactive); the IC50 under setting [1] is over 100 µM; the IC50 (FP, mean of runs) was > 95 µM (inactive); the IC50 under setting [2] is over 95 µM; the IC50 under setting [3] is over 95 µM.
With `CCN(C[C@H]1N[C@@](CC)(C(=O)OC)[C@H]2C(=O)N(C)C(=O)[C@@H]12)S(=O)(=O)c1ccc(OC)cc1`, the IC50 by setting is: (AlphaScreen, mean of runs) > 100 µM (inactive); under setting [1], over 100 µM; (FP, mean of runs) > 95 µM (inactive); under setting [2], over 95 µM; under setting [3], over 95 µM.
For `CC(C)C[C@@H](COc1ccccc1)N1CCN(CCc2ccccc2)CCC1=O`, the IC50 is, setting by setting: (AlphaScreen, mean of runs) > 100 µM (inactive); under setting [1], over 100 µM; (FP, mean of runs) > 95 µM (inactive); under setting [2], over 95 µM; under setting [3], over 95 µM.
